According to publication PMC7251097, “Aspartate/asparagine-β-hydroxylase: a high-throughput mass spectrometric assay for discovery of small molecule inhibitors” (Scientific Reports, 2020):
Structures can show the parent of a compound that is named as a salt. Where two headings read alike, the source gives them in different places.

Biological target: T1, His6-AspH315–758 (human aspartate/asparagine-β-hydroxylase, AspH) (Homo sapiens, UniProt Q12797)
T1 construct: N-Terminally His6-tagged human AspH315–758 (His6-AspH315–758) was produced in E. coli BL21 (DE3) cells; made in house; host or cells: E. coli BL21 (DE3), pET-28a(+) vector
T1 sequence (Q12797 315-758): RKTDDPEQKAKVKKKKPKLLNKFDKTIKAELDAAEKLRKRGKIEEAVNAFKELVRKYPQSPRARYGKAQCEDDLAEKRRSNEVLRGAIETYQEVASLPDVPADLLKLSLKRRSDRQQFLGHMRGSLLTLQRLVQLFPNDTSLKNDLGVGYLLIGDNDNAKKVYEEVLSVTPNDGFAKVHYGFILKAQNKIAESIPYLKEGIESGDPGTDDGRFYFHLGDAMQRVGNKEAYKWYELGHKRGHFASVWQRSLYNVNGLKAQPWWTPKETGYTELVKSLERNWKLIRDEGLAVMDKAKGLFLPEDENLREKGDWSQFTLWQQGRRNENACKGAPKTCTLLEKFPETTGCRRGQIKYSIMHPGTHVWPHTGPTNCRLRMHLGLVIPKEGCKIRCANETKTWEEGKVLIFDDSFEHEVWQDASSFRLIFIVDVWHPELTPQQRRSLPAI
Assay: SPE-MS AspH inhibition assay (LOPAC screen at fixed 20 μM and IC50 dose-response), hydroxylation of cyclic peptide hFX-CP101–119
Type: biochemical

[1] = LOPAC Plate 4, compound at 20 uM, substrate conversion
[2] = LOPAC Plate 4, compound at 20 uM, read-out: % inhibition
[3] = LOPAC compound at 20uM, plate 3, conversion of substrate peptide
[4] = LOPAC compound at 20uM, plate 2, conversion of substrate peptide
[5] = LOPAC compound at 20uM, plate 2, normalised to DMSO and 2,4-PDCA controls, read-out: Plate 2 (% inhibition)
[6] = LOPAC compound at fixed 20 uM, plate 1, normalised to DMSO and 2,4-PDCA controls

## Phenylbenzene-omega-phosphono-alpha-amino acid
  % conversion: 25.21%

## C[C@H](CS)C(=O)N1CCC[C@H]1C(=O)O [Captopril]
  Plate 1 (% conversion): 35.34%
  Plate 1 (% inhibition): 1.58%

## CCn1cnc2c(Nc3cccc(Cl)c3)nc(N[C@@H]3CCCC[C@@H]3N)nc21.Cl [CGP-74514A hydrochloride]
  Plate 1 (% conversion): 10.02%
  Plate 1 (% inhibition): 76.98%

## N[C@@H](Cn1oc(=O)[nH]c1=O)C(=O)O [(+)-Quisqualic acid]
  % conversion: 34.23%

## CN(C)CCCN1c2ccccc2Sc2ccccc21 [Promazine hydrochloride]
[1]
  % conversion: 39.62%
[2]
  inhibition at 20 µM: -9.23%

## c1ccc2c(CC3=NCCN3)cccc2c1 [Naphazoline hydrochloride]
[3]
  Plate 3 (% conversion): 38.59%

## Cc1nccc2c1[nH]c1ccccc12 [Harmane]
  Plate 2 (% conversion): 35.31%
read-out: Plate 2 (% inhibition)
  inhibition at 20 µM: 1.92%

## COc1cc2nc(N3CCN(C(=O)C4COc5ccccc5O4)CC3)nc(N)c2cc1OC (centres unmarked) [Doxazosin mesylate]
[4]
  Plate 2 (% conversion): 41.90%
[5]
  inhibition at 20 µM: -17.8%

## CC(CCc1ccccc1)NCC(O)c1ccc(O)c(C(N)=O)c1 (centres unmarked) [Labetalol hydrochloride]
[3]
  Plate 3 (% conversion): 36.38%

## N[C@H](CO)C(=O)O [D-Serine]
[1]
  % conversion: 29.64%

## CCCCCCCCc1ccc(-c2ccc(C(=O)O)cc2)cc1 [AC-55649]
  % conversion: 33.36%
20 µM
  % inhibition: 9.11%

## O=C([O-])[C@H](CC(=O)N1C[C@H]2CCCC[C@H]2C1)Cc1ccccc1.O=C([O-])[C@H](CC(=O)N1C[C@H]2CCCC[C@H]2C1)Cc1ccccc1.[Ca+2] [Mitiglinide calcium]
[3]
  Plate 3 (% conversion): 39.51%

## CC(=O)OCC(=O)[C@@]1(O)CC[C@H]2[C@@H]3CCC4=CC(=O)CC[C@]4(C)[C@H]3C(=O)C[C@@]21C [Cortisone 21-acetate]
[6]
  Plate 1 (% inhibition): 4.10%
LOPAC compound at fixed 20 uM, substrate conversion, plate 1
  Plate 1 (% conversion): 34.50%

## Clc1ccc(N2CCN(Cc3cc4ccccn4n3)CC2)cc1 [FAUC 213]
LOPAC Plate 4, compound at 20 uM
  % inhibition: -8.79%
[1]
  % conversion: 39.47%

## CCN[C@H]1CN(CCCOC)S(=O)(=O)c2sc(S(N)(=O)=O)cc21 [Brinzolamide]
[1]
  % conversion: 38.63%
[2]
  inhibition at 20 µM: -6.32%

## NCCc1c[nH]c2ccc(C(N)=O)cc12.O=C(O)/C=C\C(=O)O [5-Carboxamidotryptamine maleate]
  Plate 2 (% conversion): 35.62%
20 µM
  Plate 2 (% inhibition): 0.99%

## CC(C)(C)C(=O)Oc1ccc(S(=O)(=O)Nc2ccccc2C(=O)NCC(=O)[O-])cc1.[Na+] [Sivelestat sodium salt hydrate]
[3]
  Plate 3 (% conversion): 36.62%

## CCN(CC)C(=S)SSC(=S)N(CC)CC [Tetraethylthiuram disulfide]
[1]
  % conversion: 22.31%

## CC(C)Cn1c(=O)n(C)c(=O)c2[nH]cnc21 [3-Isobutyl-1-methylxanthine]
  Plate 3 (% conversion): 38.13%

## CNCCc1c[nH]c2ccc(O)cc12.O=C(O)C(=O)O
  Plate 3 (% conversion): 9.71%

## CC(C)NCC(O)c1ccc(O)c(O)c1.Cl (single isomer, unassigned; (-)) [(-)-Isoproterenol hydrochloride]
[3]
  Plate 3 (% conversion): 6.03%

## Nc1nc2c(ncn2CCOCP(=O)(O)O)c(=O)[nH]1 [PMEG hydrate]
[3]
  Plate 3 (% conversion): 30.37%

## O=C1CC2(CCCC2)CC(=O)N1CCCCN1CCN(c2ncccn2)CC1 [Buspirone hydrochloride]
  Plate 1 (% conversion): 40.40%
[6]
  Plate 1 (% inhibition): -13.49%

## O=c1[nH]cc(F)c(=O)[nH]1 [5-Fluorouracil]
[4]
  Plate 2 (% conversion): 36.11%
[5]
  inhibition at 20 µM: -0.46%

## C#C[C@]1(O)CC[C@H]2[C@@H]3CCC4=Cc5nc6nc7ccccc7n6cc5C[C@]4(C)[C@H]3CC[C@@]21C [WIN 62,577]
  % conversion: 37.03%
20 µM
  % inhibition: -1.63%

## O=C(CCc1ccc(O)cc1)c1c(O)cc(O)cc1O [Phloretin]
[1]
  % conversion: 29.69%

## CCNC(=O)[C@H]1O[C@@H](n2cnc3c(N)ncnc32)[C@H](O)[C@@H]1O [5-N-Ethylcarboxamidoadenosine]
[4]
  Plate 2 (% conversion): 35.71%
LOPAC compound at 20uM, plate 2, normalised to DMSO and 2,4-PDCA controls
  Plate 2 (% inhibition): 0.73%
